In patent US20240270821A1, “GIP/GLP1/GCG TRI-RECEPTOR AGONISTS AND USES THEREOF” (priority 2023, published 2024) one finds EC50 data, which are given here for 13 molecules.

Where two headings read alike, the source gives them in different places. Starred links: 1 amine or outer side, 2 acyl side, 3 side chain; linkers in the order of their positions; H or OH if unused. Non-standard residues stand in square brackets, D forms with d. Residues, ends and D or L forms follow the SMILES beside them. Groups on a side chain read outwards from the residue. No end group written: not given here. *: point of attachment. C18 diacid = O=C(O)CCCCCCCCCCCCCCCCC(=O)*; αMePhe(2-F) = C[C@](N)(Cc1ccccc1F)C(=O)O; γGlu = O=C(O)[C@H](CCC(=O)[*:2])N[*:1]; αMe4Pal = C[C@](N)(Cc1ccncc1)C(=O)O; αMeY = C[C@](N)(Cc1ccc(O)cc1)C(=O)O; 4Pal = N[C@@H](Cc1ccncc1)C(=O)O; αMeL = CC(C)C[C@](C)(N)C(=O)O; αMeS = C[C@](N)(CO)C(=O)O; Orn = NCCC[C@H](N)C(=O)O; AEEA = NCCOCCOCC(=O)O; Aib = CC(C)(N)C(=O)O

Type in all cases: cell-based
Test [1] has as its target T1, hGLP-1R (Homo sapiens, UniProt P43220). In words: Functional cAMP activation in the presence of 0.1% casein (no HSA). The note with it: read-out: Relative cAMP EC50, hGLP-1R.
Test [2] deals with T2, hGIPR (Homo sapiens, UniProt P48546).
T2 sequence (P48546 22-466): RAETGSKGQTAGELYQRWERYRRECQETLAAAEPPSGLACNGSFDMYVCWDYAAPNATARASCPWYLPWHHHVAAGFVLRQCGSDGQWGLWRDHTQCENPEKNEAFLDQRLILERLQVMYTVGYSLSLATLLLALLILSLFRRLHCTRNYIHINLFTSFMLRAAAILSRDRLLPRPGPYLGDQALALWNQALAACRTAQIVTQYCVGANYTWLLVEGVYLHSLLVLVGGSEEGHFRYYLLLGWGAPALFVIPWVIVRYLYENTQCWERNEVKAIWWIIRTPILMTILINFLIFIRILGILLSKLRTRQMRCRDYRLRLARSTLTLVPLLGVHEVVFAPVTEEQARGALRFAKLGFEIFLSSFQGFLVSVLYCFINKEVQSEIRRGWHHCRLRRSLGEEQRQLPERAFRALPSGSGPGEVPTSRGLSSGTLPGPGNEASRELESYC
As to the kind of experiment: Functional cAMP activity in the presence of 1% HSA. The note with it: read-out: cAMP Rel EC50, hGIPR.

In the next test the target is hGcgR (Homo sapiens, UniProt P47871). In words: Functional cAMP activation in the presence of 0.1% casein (no HSA). The following applies: read-out: Relative cAMP EC50, hGcgR.
In a further test the target is human GcgR (Homo sapiens, UniProt P47871). In words: Functional cAMP activity in the presence of 1% HSA. The note with it: read-out: cAMP Rel EC50, hGcgR.
Test [3] has as its target T1, hGLP-1R. In words: Functional cAMP activity in the presence of 1% HSA. The following applies: read-out: cAMP Rel EC50, hGLP-1R.
For test [4], the target named is T2, hGIPR. In words: Functional cAMP activation in the presence of 0.1% casein (no HSA). The note with it: read-out: Relative cAMP EC50, hGIPR.
Setting [5] is: in the presence of 0.1% casein (no HSA), geometric mean.
Setting [6] is: in the presence of 0.1% casein (no HSA), geometric mean of relative EC50.
The mark [7] stands for this setting: HEK-293 clonal cell line, 1% HSA, geometric mean of relative EC50.
Where [8] appears, read: HEK-293 clonal cell line, in the presence of 1% HSA, geometric mean of relative EC50.
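Throughout, for Relative cAMP EC50, hGIPR: intracellular cAMP rise after 30 min at 37 °C read by HTRF against a standard curve, scaled between buffer alone (0%) and top control ligand concentration (100%), four-parameter fit.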
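Throughout, for Relative cAMP EC50, hGLP-1R: intracellular cAMP rise after 30 min at 37 °C read by HTRF, normalized between buffer only (0%) and maximal control ligand (100%), four-parameter variable-slope fit.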
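Throughout, for Relative cAMP EC50, hGcgR: intracellular cAMP rise after 30 min at 37 °C, read by HTRF against a cAMP standard curve, scaled from buffer only (0%) to maximal control ligand response (100%).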

human GcgR, sequence (P47871 26-477): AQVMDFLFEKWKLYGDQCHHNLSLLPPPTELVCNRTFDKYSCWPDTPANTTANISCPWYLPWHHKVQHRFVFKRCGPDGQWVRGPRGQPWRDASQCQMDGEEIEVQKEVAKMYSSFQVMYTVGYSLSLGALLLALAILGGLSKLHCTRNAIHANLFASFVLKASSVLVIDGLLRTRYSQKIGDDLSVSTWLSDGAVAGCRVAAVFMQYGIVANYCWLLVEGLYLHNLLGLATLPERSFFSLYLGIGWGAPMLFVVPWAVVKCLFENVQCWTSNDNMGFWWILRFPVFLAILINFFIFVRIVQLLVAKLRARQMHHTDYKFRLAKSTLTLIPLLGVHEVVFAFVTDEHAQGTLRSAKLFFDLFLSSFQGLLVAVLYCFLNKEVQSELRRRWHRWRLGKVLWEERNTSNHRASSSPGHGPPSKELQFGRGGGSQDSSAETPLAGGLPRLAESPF
hGcgR, sequence (P47871 26-477): as above
T1 sequence (P43220 24-463): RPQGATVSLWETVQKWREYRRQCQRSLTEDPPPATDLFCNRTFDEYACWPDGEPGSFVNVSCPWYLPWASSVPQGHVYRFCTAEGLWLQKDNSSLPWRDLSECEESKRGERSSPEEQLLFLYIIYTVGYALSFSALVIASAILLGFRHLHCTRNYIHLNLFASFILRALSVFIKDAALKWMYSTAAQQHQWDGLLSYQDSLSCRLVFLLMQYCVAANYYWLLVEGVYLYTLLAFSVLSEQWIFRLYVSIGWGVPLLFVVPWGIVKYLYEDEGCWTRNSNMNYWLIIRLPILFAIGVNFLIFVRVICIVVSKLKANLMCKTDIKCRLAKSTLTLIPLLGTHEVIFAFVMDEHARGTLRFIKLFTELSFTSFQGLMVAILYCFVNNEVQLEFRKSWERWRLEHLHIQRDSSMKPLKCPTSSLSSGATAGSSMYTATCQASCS

What is called EC50 is the concentration at which the effect is half-maximal. On to `CC[C@H](C)[C@H](NC(=O)[C@H](Cc1ccccc1)NC(=O)[C@H](CCCN)NC(=O)C(C)(C)NC(=O)[C@H](CCC(N)=O)NC(=O)[C@H](C)NC(=O)[C@H](CCCCNC(=O)COCCOCCNC(=O)CC[C@H](NC(=O)CCCCCCCCCCCCCCCCC(=O)O)C(=O)O)NC(=O)[C@H](CCCN)NC(=O)[C@H](CC(=O)O)NC(=O)[C@H](CC(C)C)NC(=O)[C@](C)(CC(C)C)NC(=O)[C@@H](NC(=O)[C@H](CO)NC(=O)[C@H](Cc1ccncc1)NC(=O)[C@H](CC(=O)O)NC(=O)[C@H](CO)NC(=O)[C@@H](NC(=O)[C@](C)(Cc1ccccc1F)NC(=O)[C@@H](NC(=O)CNC(=O)[C@H](CCC(N)=O)NC(=O)C(C)(C)NC(=O)[C@@H](N)Cc1ccc(O)cc1)[C@@H](C)O)[C@@H](C)O)[C@@H](C)CC)C(=O)N[C@H](CCC(=O)O)C(=O)N[C@@](C)(Cc1ccc(O)cc1)C(=O)N[C@@H](CC(C)C)C(=O)N[C@@H](CC(C)C)C(=O)N[C@@H](CCC(=O)O)C(=O)NCC(=O)NCC(=O)N1CCC[C@H]1C(=O)N[C@@H](CO)C(=O)N[C@@H](CO)C(=O)NCC(=O)N[C@@H](CCC(=O)O)C(=O)N1CCC[C@H]1C(=O)N1CCC[C@H]1C(=O)N1CCC[C@H]1C(=O)N[C@@H](CCC(=O)O)C(N)=O` [Example 370] (H-Y[Aib]QGT[αMePhe(2-F)]TSD[4Pal]SI[αMeL]LD[Orn]K([AEEA-γGlu-C18 diacid])AQ[Aib][Orn]FI[dE][αMeY]LLEGGPSSGEPPPE-NH2), for which the EC50 was determined as 0.406 nM at hGLP-1R [1] (setting [5]); 4.23 nM at hGIPR [2]; 7.06 nM on hGcgR (setting [5]); 803 nM at human GcgR; 37.5 nM on hGLP-1R [3]; 0.027 nM at hGIPR [4] (setting [5]).

As to “H-Y[Aib]QGT[αMePhe(2-F)]TSD[4Pal]SI[αMeL]LDKK([γGlu-γGlu-C18 diacid])AQ[Aib][Orn]FIEYLTEGGPSSGEPPPSGSEE-NH2 [Example 638]”, the EC50 on hGLP-1R [1] (setting [6]) is 0.4 nM; at hGIPR [2] (setting [7]), 2.39 nM; on hGcgR (setting [6]), 14 nM; on human GcgR (setting [7]), 1090 nM; at hGLP-1R [3] (setting [7]), 36 nM; on hGIPR [4] (setting [6]), 0.0354 nM.

With “H-Y[Aib]QGTFTSD[4Pal]SQ[αMeL]LD[Orn]K([AEEA-γGlu-γGlu-C18 diacid])AQ[αMe4Pal]AFIEYLIE[dA]GPSSGEPPPSGS-NH2 [Example 1018]”, the EC50 was found to be 1.69 nM at hGLP-1R [1] (setting [5]); 14.1 nM on hGIPR [2]; 5.29 nM on hGcgR (setting [5]); 568 nM on human GcgR; 163 nM on hGLP-1R [3]; 0.51 nM on hGIPR [4] (setting [5]).

For the molecule “H-Y[Aib]QGTFTSD[4Pal]SQ[αMeL]LD[Orn]K([γGlu-γGlu-C18 diacid])AQ[αMe4Pal]QFIEYLIAGGPSSGAPPPSGSEE-NH2 [Example 1005]”, the EC50 at hGLP-1R [1] (setting [5]) stood at 1.48 nM; on hGIPR [2], 14.5 nM; on hGcgR (setting [5]), 9.46 nM; at human GcgR it was 1670 nM; on hGLP-1R [3], 171 nM; on hGIPR [4] (setting [5]), 0.152 nM.

Consider “Y[Aib]QGTFTSD[4Pal]SQ[αMeL]LDKK([γGlu-γGlu-C18 diacid])AQ[αMe4Pal]AFIE[αMe4Pal]LIE[Aib]GPSSGAPPPSGEE-NH2 [Example 1121]”, for which the EC50 at hGLP-1R [1] (setting [5]) turned out to be 5.23 nM; on hGIPR [2] (setting [8]), 4.55 nM; on hGcgR (setting [5]), 8.83 nM; on human GcgR (setting [8]), 566 nM; on hGLP-1R [3] (setting [8]) it was 165 nM; at hGIPR [4] (setting [5]), 0.115 nM.

Take “H-Y[Aib]QGT[αMePhe(2-F)]TSD[4Pal][αMeS]I[αMeL]LD[Orn]K([γGlu-γGlu-C18 diacid])AQ[Aib][Orn]FI[dE][αMeY]LQEGGPSSGEPPPSGTEE-NH2 [Example 572]”: the EC50 is 0.366 nM at hGLP-1R [1]; 3.13 nM on hGIPR [2]; 3.48 nM on hGcgR; 330 nM on human GcgR; 30.4 nM on hGLP-1R [3]; 0.0465 nM on hGIPR [4].

Turning to “H-Y[Aib]QGTFTSDFS[Orn][αMeL]LDKK([γGlu-AEEA-γGlu-C18 diacid])AQ[Aib]AFIEYLLE[Aib]GHSSGAPPPSGS-NH2 [Example 245]”, the EC50 came out at 5.99 nM on hGLP-1R [1] (setting [5]); 10.5 nM at hGIPR [2]; 7.07 nM at hGcgR (setting [5]); 1120 nM at human GcgR; 540 nM at hGLP-1R [3]; 0.0684 nM at hGIPR [4] (setting [5]).

Consider “H-Y[Aib]QGTFTSD[4Pal]SQ[αMeL]LDKK([γGlu-γGlu-C18 diacid])AQ[αMe4Pal]AFIE[αMe4Pal]LIE[Aib]GPSSGEPPPSGSEE-NH2 [Example 1125]”, for which the EC50 on hGLP-1R [1] (setting [5]) came to 8.26 nM; at hGIPR [2], 3.95 nM; at hGcgR (setting [5]) it was 5.83 nM; at human GcgR it was 264 nM; at hGLP-1R [3] it was 243 nM; on hGIPR [4] (setting [5]), 0.173 nM.

For “H-Y[Aib]QGTFTSD[4Pal]SQ[αMeL]LDKK([γGlu-γGlu-C18 diacid])AQ[Aib]AFIE[αMeY]LLEGGPSSGAPPPSGS-NH2 [Example 938]”, the EC50 on hGLP-1R [1] (setting [5]) was determined as 1.84 nM; at hGIPR [2], 21.5 nM; at hGcgR (setting [5]) it was 13.3 nM; on human GcgR, 2830 nM; at hGLP-1R [3] it was 263 nM; on hGIPR [4] (setting [5]), 0.13 nM.

On to “H-Y[Aib]QGT[αMePhe(2-F)]TSD[4Pal][αMeS]I[αMeL]LD[Orn]K([γGlu-γGlu-C18 diacid])AA[Aib]EFI[dE][αMeY]LVEGGPSSGEPPPSGS-NH2 [Example 695]”, for which the EC50 at hGLP-1R [1] worked out at 0.254 nM; at hGIPR [2] it was 0.772 nM; at hGcgR, 1.93 nM; on human GcgR, 164 nM; on hGLP-1R [3], 19.5 nM; on hGIPR [4], 0.0136 nM.

With `CC[C@H](C)[C@H](NC(=O)[C@H](Cc1ccccc1)NC(=O)C(C)(C)NC(=O)C(C)(C)NC(=O)[C@H](CCC(N)=O)NC(=O)[C@H](C)NC(=O)[C@H](CCCCNC(=O)COCCOCCNC(=O)CC[C@H](NC(=O)CCCCCCCCCCCCCCCCCCC(=O)O)C(=O)O)NC(=O)[C@H](CCCN)NC(=O)[C@H](CC(=O)O)NC(=O)[C@H](CC(C)C)NC(=O)[C@](C)(CC(C)C)NC(=O)[C@@H](NC(=O)[C@H](CO)NC(=O)[C@H](Cc1ccncc1)NC(=O)[C@H](CC(=O)O)NC(=O)[C@H](CO)NC(=O)[C@@H](NC(=O)[C@](C)(Cc1ccccc1F)NC(=O)[C@@H](NC(=O)CNC(=O)[C@H](CCC(N)=O)NC(=O)C(C)(C)NC(=O)[C@@H](N)Cc1ccc(O)cc1)[C@@H](C)O)[C@@H](C)O)[C@@H](C)CC)C(=O)N[C@H](CCC(=O)O)C(=O)N[C@@](C)(Cc1ccc(O)cc1)C(=O)N[C@@H](CC(C)C)C(=O)N[C@@H](CC(C)C)C(=O)N[C@@H](CCC(=O)O)C(=O)NCC(=O)NCC(=O)N1CCC[C@H]1C(=O)N[C@@H](CO)C(=O)N[C@@H](CO)C(=O)NCC(=O)N[C@@H](CCC(=O)O)C(=O)N1CCC[C@H]1C(=O)N1CCC[C@H]1C(=O)N1CCC[C@H]1C(=O)N[C@@H](CO)C(N)=O` [Example 366], the EC50 turned out to be 0.744 nM at hGLP-1R [1] (setting [5]); 4.27 nM at hGIPR [2]; 4.51 nM on hGcgR (setting [5]); 1830 nM on human GcgR; 85.9 nM at hGLP-1R [3]; 0.024 nM on hGIPR [4] (setting [5]).

Take “H-Y[Aib]QGTFTSD[4Pal]SQ[αMeL]LDKK([Glu-γGlu-Glu-C18 diacid])AQ[αMe4Pal]AFIEYLIE[Aib]GPSSGAPPPSGS-NH2 [Example 896]”: the EC50 at hGLP-1R [1] (setting [5]) is 4.64 nM; on hGIPR [2], 16.8 nM; on hGcgR (setting [5]), 10.6 nM; on human GcgR, 1110 nM; at hGLP-1R [3], 535 nM; at hGIPR [4] (setting [5]) it was 0.12 nM.

In the case of “H-Y[Aib]QGT[αMePhe(2-F)]TSD[4Pal][αMeS]ILLD[Orn]K([γGlu-γGlu-C18 diacid])AQ[Aib][Orn]FI[dE][αMeY]LQEGGPSSGEPPPSGAE-NH2 [Example 547]”, the EC50 on hGLP-1R [1] was 0.337 nM; on hGIPR [2], 7.26 nM; on hGcgR it was 3.8 nM; on human GcgR, 237 nM; on hGLP-1R [3] it was 27.7 nM; on hGIPR [4], 0.152 nM.
